This note sets out measurements from ChEMBL document CHEMBL1949517, “Stylissamide X, a new proline-rich cyclic octapeptide as an inhibitor of cell migration, from an Indonesian marine sponge of Stylissa sp” (Bioorg Med Chem Lett, 2012).

Data set [1] deals with HeLa. In words: Anti-cell migration activity at human HeLa cells at 0.1 to 10 uM after 24 hrs by wound healing assay. The format is functional, cell-based.
Data set [2] in a line: Cytotoxicity against human HeLa cells assessed as cell viability at 10 uM after 24 hrs by MTT assay. The format is cell-based. Conditions: read-out: Activity.
For data set [3], the system named is HeLa. In words: Anti-cell migration activity at EGF-induced human HeLa cells at 0.1 to 10 uM after 24 hrs by Giemsa-staining based chemotaxicell chamber assay. The data set is classed as functional.

Calls of active or inactive are those of the source. The calls are words filed in the database; no cut-off is given here. Where a SMILES comes first, the peptide text is derived from it.

Turning to `CC[C@H](C)[C@@H]1NC(=O)[C@@H]2CCCN2C(=O)[C@H]([C@@H](C)O)NC(=O)[C@H](CC(C)C)NC(=O)[C@@H]2CCCN2C(=O)[C@H](Cc2ccccc2)NC(=O)[C@H](Cc2c[nH]c3ccccc23)NC(=O)[C@@H]2CCCN2C1=O` [STYLISSAMIDE X] (cyclo(FPLTPIPW)), the result in the data set with HeLa [1] and in the data set with HeLa [3] was Active. The viability at 24 h, 10 µM in data set [2] was greater than 75%.
